Assays:
Assay in all cases: MIC, CLSI broth microdilution
Type in all cases: cell-based
[1] = test system: Acinetobacter baumannii ATCC 19606; details: ATCC19606
Method: (§1) Gram-negative and Gram-positive bacterial strains used during the in vitro minimum inhibitory concentration (MIC) determination were obtained either from the American Type Culture Collection (ATCC) or from clinical specimens. All strains were characterized genotypically and the respective antibiotic resistance markers for each strain were identified.
(§2) Isolates were sub-cultured onto appropriate media and stocked in skim milk at −80° C. Following two subcultures from frozen stock, in vitro antimicrobial susceptibility testing was performed using the Clinical and Laboratory Standards Institute (CLSI) broth microdilution method. Briefly, fresh cultures were suspended in culture media to give a final stock inoculum size of 5×10^7 colony forming units per milliliter of broth (CFU/mL). […] 100 μL of the stock solutions were added to the first wells in a 96-well plate and were then diluted using a 2-fold dilution method to give a range of 32-0.025 μg/mL. 100 μL of the bacterial suspensions were then added to the 96-well plates to give a final working inoculum size of 5×10^5 CFU/mL. The final compound concentration range was 16-0.0125 μg/mL. […] MICs for comparator agents were determined using custom-designed, in-house prepared 96-well broth microdilution panels.

[2] = test system: Citrobacter freundii species complex OXA-181; details: Citrobacter freundii species complex, OXA-181; read-out: MIC
Method: as §1, §2

[3] = test system: Enterobacter cloacae species complex NDM-1
Method: as §1, §2

[4] = test system: Escherichia coli ATCC 25922; details: ATCC25922
Method: as §1, §2

Escherichia coli CMY-2 = details: CMY2
Method: as §1, §2

[5] = test system: Escherichia coli CTX-M-15; details: CTXM15
Method: as §1, §2

[6] = test system: Escherichia coli Empty pSMART plasmid
Method: as §1, §2

[7] = test system: Escherichia coli Isogenic TEM-10
Method: as §1, §2

[8] = test system: Escherichia coli Isogenic TEM-26
Method: as §1, §2

Escherichia coli SHV-12 = details: SHV12
Method: as §1, §2

[9] = test system: Escherichia coli pSMART_Cfreundii_AmpC
Method: as §1, §2

[10] = test system: Escherichia coli pSMART_Ecloacae_AmpC
Method: as §1, §2

[11] = test system: Klebsiella aerogenes VIM-1, SHV-12
Method: as §1, §2

[12] = test system: Klebsiella oxytoca KPC-2, TEM-1; details: KPC-2, TEM-1, read-out: MIC
Method: as §1, §2

[13] = test system: Klebsiella pneumoniae KPC-2; details: KPC2
Method: as §1, §2

[14] = test system: Klebsiella pneumoniae KPC-3; details: KPC3, KPC-3, read-out: MIC
Method: as §1, §2

[15] = test system: Klebsiella pneumoniae OXA-163, OXA-1_OXA-30, SHV-1, TEM-1
Method: as §1, §2

[16] = test system: Klebsiella pneumoniae OXA-48, SHV-1
Method: as §1, §2

[17] = test system: Klebsiella pneumoniae SHV-12; details: SHV12, SHV-12, read-out: MIC
Method: as §1, §2

[18] = test system: Pseudomonas aeruginosa ATCC 27853; details: ATCC27853
Method: as §1, §2

[19] = test system: Pseudomonas aeruginosa AmpC overexpressed
Method: as §1, §2

[20] = test system: Pseudomonas aeruginosa OprD negative
Method: as §1, §2

[21] = test system: Serratia marcescens AmpC overexpressed
Method: as §1, §2

[22] = test system: Serratia marcescens SME-2; details: SME2
Method: as §1, §2

Measured: MIC

CC(C)(O/N=C(\C(=O)N[C@H]1CON(C2(C(=O)O)C[C@@H](N3C(=O)c4cc(O)c(O)cc4C3=O)C(=O)O2)C1=O)c1csc(N)n1)C(=O)O (stereo partly drawn) [Cmpd 40, (4R)-2-[(4S)-4-{[(2Z)-2-(2-amino-1,3-thiazol-4-yl)-2-{[(2-carboxypropan-2-yl)oxy]imino}acetyl]amino}-3-oxo-1,2-oxazolidin-2-yl]-4-(5,6-dihydroxy-1,3-dioxo-1,3-dihydro-2H-isoindol-2-yl)-5-oxooxolane-2-carboxylic acid]
0.06 µg/mL: [4] | [10] | [15] | [22]
0.25 µg/mL: [2] | [11]
2 µg/mL: [3] | Escherichia coli CMY-2 | [5]
≤ 0.015 µg/mL: [6] | [8] | [12] | [13] | [17]
1 µg/mL: Escherichia coli SHV-12
8 µg/mL: [19]
0.03 µg/mL: [7] | [14] | [16]
0.12 µg/mL: all other assays above

Nc1nc(/C(=N/OC2(C(=O)O)CCC2)C(=O)N[C@H]2CON(C3(C(=O)O)C[C@H](N4C(=O)c5cc(O)c(O)cc5C4=O)C(=O)O3)C2=O)cs1 (stereo partly drawn) [Cmpd 4, (4S)-2-[(4S)-4-{[(2Z)-2-(2-amino-1,3-thiazol-4-yl)-2-{[(1-carboxycyclobutyl)oxy]imino}acetyl]amino}-3-oxo-1,2-oxazolidin-2-yl]-4-(5,6-dihydroxy-1,3-dioxo-1,3-dihydro-2H-isoindol-2-yl)-5-oxooxolane-2-carboxylic acid]
0.25 µg/mL: [3] | [4] | [18]
0.03 µg/mL: [7] | [14] | [17]
0.12 µg/mL: [1] | [9] | [21]
1 µg/mL: [5] | Escherichia coli SHV-12 | [11] | [19] | [20]
≤ 0.015 µg/mL: [6] | [12] | [16]
2 µg/mL: Escherichia coli CMY-2
0.06 µg/mL: all other assays above
